From ChEMBL document CHEMBL1201862, “PubChem BioAssay data set” (2004)
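Interpolation was linear, between the two tested concentrations surrounding the appropriate level; five concentrations were tested over 48 hours in 96-well plates. GI50 = concentration required for 50% inhibition of growth.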 Active and inactive are the calls of the source. Cut-off read from the data, not from the text of the source: active = GI50 up to about 1.1 µM and inactive = higher.

How the values were obtained:
Experiment in all cases: NCI-60 cell line screen, 48 h
CCRF-CEM = test system: CCRF-CEM
K562 = test system: K562
SF-268 = test system: SF-268
OVCAR-8 = test system: OVCAR-8
SN12C = test system: SN12C
SK-MEL-28 = test system: SK-MEL-28
UO-31 = test system: UO-31
786-0 = test system: 786-0
TK-10 = test system: TK-10
A549 = test system: A549
SK-MEL-5 = test system: SK-MEL-5
UACC-62 = test system: UACC-62
NCI-H522 = test system: NCI-H522
PC-3 = test system: PC-3
MDA-MB-435 = test system: MDA-MB-435
M14 = test system: M14
DU-145 = test system: DU-145
OVCAR-3 = test system: OVCAR-3
HOP-62 = test system: HOP-62
SR = test system: SR
MCF7 = test system: MCF7
OVCAR-5 = test system: OVCAR-5
T47D = test system: T47D
SK-OV-3 = test system: SK-OV-3
HT-29 = test system: HT-29
IGROV-1 = test system: IGROV-1
HCT-116 = test system: HCT-116
MDA-MB-231 = test system: MDA-MB-231
U-251 = test system: U-251
LOX IMVI = test system: LOX IMVI
EKVX = test system: EKVX
NCI-H23 = test system: NCI-H23
NCI-H226 = test system: NCI-H226
MDA-N = test system: MDA-N
SNB-75 = test system: SNB-75
CAKI-1 = test system: CAKI-1
UACC-257 = test system: UACC-257
COLO 205 = test system: COLO 205
NCI/ADR-RES = test system: NCI/ADR-RES
RPMI-8226 = test system: RPMI-8226
OVCAR-4 = test system: OVCAR-4
KM12 = test system: KM12
Hs-578T = test system: Hs-578T
HL-60 = test system: HL-60
RXF 393 = test system: RXF 393
MOLT-4 = test system: MOLT-4
NCI-H460 = test system: NCI-H460
ACHN = test system: ACHN
SNB-19 = test system: SNB-19
BT-549 = test system: BT-549
HCT-15 = test system: HCT-15
Malme-3M = test system: Malme-3M

Measured: GI50

O=c1[nH]c(=O)n(C2CC(O)C(CO)O2)cc1OCc1ccccc1 (configuration not stated)
> 100 µM: HCT-15
inactive: CCRF-CEM > 100 µM | K562 > 100 µM | SF-268 > 100 µM | OVCAR-8 > 100 µM | SN12C > 100 µM | SK-MEL-28 > 100 µM | UO-31 > 100 µM | 786-0 > 100 µM | TK-10 > 100 µM | A549 > 100 µM | SK-MEL-5 > 100 µM | UACC-62 > 100 µM | NCI-H522 > 100 µM | PC-3 > 100 µM | MDA-MB-435 > 100 µM | M14 > 100 µM | DU-145 > 100 µM | OVCAR-3 > 100 µM | HOP-62 > 100 µM | SR > 100 µM | MCF7 > 100 µM | OVCAR-5 > 100 µM | T47D > 100 µM | SK-OV-3 > 100 µM | HT-29 > 100 µM | IGROV-1 > 100 µM | HCT-116 > 100 µM | MDA-MB-231 > 100 µM | U-251 > 100 µM | LOX IMVI > 100 µM | EKVX > 100 µM | NCI-H23 > 100 µM | NCI-H226 > 100 µM | MDA-N > 100 µM | SNB-75 > 100 µM | CAKI-1 > 100 µM | UACC-257 > 100 µM | COLO 205 > 100 µM | NCI/ADR-RES > 100 µM | RPMI-8226 > 100 µM | OVCAR-4 > 100 µM | KM12 > 100 µM | Hs-578T > 100 µM | HL-60 > 100 µM | RXF 393 > 100 µM | MOLT-4 > 100 µM | NCI-H460 > 100 µM | ACHN > 100 µM | SNB-19 > 100 µM | BT-549 > 100 µM | Malme-3M > 100 µM
